Experiment [1] in a line: (§1) Antiproliferative activity against mouse KC-0116 cells by MTT assay. It counts as functional, cell-based. (Tetrazolium assays rely on reduction of a dye to a coloured formazan, in cell work by metabolically active cells.)
In the next experiment the test system is NCI-H1975. Kind of experiment: Antiproliferative activity against human NCI-H1975 cells by MTT assay. The format is functional, cell-based.
Experiment [2] can be described thus: Induction of apoptosis in mouse KC-0116 cells assessed as necrotic cells at 300 nM measured after 36 hrs by Annexin V/propidium iodide staining based flow cytometry (reference value: 0.03%). The format is functional. In general terms: In flow cytometry, cells or beads pass a laser one at a time.
The next experiment concerns HCC827. Kind of experiment: Antiproliferative activity against human HCC827 cells by MTT assay. The format is functional, cell-based.
Experiment [3] relates to KC-0116. The experiment is described as §1. It counts as functional, cell-based.
Experiment [4] in a line: Induction of apoptosis in mouse KC-0116 cells assessed as late apoptotic cells at 100 nM measured after 36 hrs by Annexin V/propidium iodide staining based flow cytometry (reference value: 2.47%). The format is functional.
Experiment [5] concerns KC-0116. Kind of experiment: Cell cycle arrest in mouse KC-0116 cells assessed as increase in cell population at G2/M-phase at 0.1 to 0.3 uM measured after 48 hrs by flow cytometry. It counts as functional, cell-based. The settings on record: dose 0.1-0.3 µM.
The nature of experiment [6]: Induction of apoptosis in mouse KC-0116 cells assessed as viable cells at 100 nM measured after 36 hrs by Annexin V/propidium iodide staining based flow cytometry (reference value: 90.66%). It counts as functional. The settings on record: read-out: Activity.
Experiment [7] is described as follows: Induction of apoptosis in mouse KC-0116 cells assessed as necrotic cells at 100 nM measured after 36 hrs by Annexin V/propidium iodide staining based flow cytometry (reference value: 0.03%). It counts as functional.
Experiment [8] is described as follows: Induction of apoptosis in mouse KC-0116 cells assessed as viable cells at 300 nM measured after 36 hrs by Annexin V/propidium iodide staining based flow cytometry (reference value: 90.66%). The format is functional. The settings on record: read-out: Activity.
Experiment [9] in a line: Antiproliferative activity against mouse KC-0122 cells by MTT assay. It counts as functional, cell-based.
Experiment [10] relates to KC-0116. Kind of experiment: Inhibition of EGFR-del19/T790M/C797S in mouse KC-0116 cells assessed as reduction in AKT phosphorylation measured after 8 hrs by Western blot analysis. The format is cell-based. The settings on record: dose 0.3-3 µM. Background: In western blotting, separated proteins are transferred to a membrane and probed.
Experiment [11] relates to KC-0116. Kind of experiment: Induction of apoptosis in mouse KC-0116 cells measured after 36 hrs by Annexin V/propidium iodide staining based flow cytometry. To be noted: dose 0.1-3 µM. It counts as functional, cell-based.
Experiment [12] has as its system KC-0116. The experiment can be described thus: Inhibition of EGFR-del19/T790M/C797S in mouse KC-0116 cells assessed as reduction in EGFR phosphorylation measured after 8 hrs by Western blot analysis. It counts as cell-based. To be noted: dose 0.3-3 µM.
A further experiment has as its system A-431. Kind of experiment: Antiproliferative activity against human A-431 cells by MTT assay. It counts as functional, cell-based.
The nature of experiment [13]: Induction of apoptosis in mouse KC-0116 cells assessed as early apoptotic cells at 300 nM measured after 36 hrs by Annexin V/propidium iodide staining based flow cytometry (reference value: 6.85%). The format is functional.
A short description of experiment [14]: Induction of apoptosis in mouse KC-0116 cells assessed as early apoptotic cells at 100 nM measured after 36 hrs by Annexin V/propidium iodide staining based flow cytometry (reference value: 6.85%). The format is functional.
Experiment [15] can be described thus: Induction of apoptosis in mouse KC-0116 cells assessed as late apoptotic cells at 300 nM measured after 36 hrs by Annexin V/propidium iodide staining based flow cytometry (reference value: 2.47%). It counts as functional.
Experiment [16] in a line: Antiproliferative activity against mouse Ba/F3 EGFR-T790M/C797S/L858R cells. The format is functional, cell-based.
A short description of experiment [17]: Antiproliferative activity against mouse Ba/F3 EGFR-Del19/T790M/C797S cells. It counts as functional, cell-based.

Calls of active or inactive are those of the source. The calls are words filed in the database; no cut-off is given here.

The results in this text go back to ChEMBL document CHEMBL5365399, “Design, synthesis and evaluation of new pyrimidine derivatives as EGFRC797S tyrosine kinase inhibitors” (Bioorg Med Chem Lett, 2023).

As to `CN1CCN(c2ccc(Nc3ncc4c5ccccc5n([C@H]5CCN(S(=O)(=O)C6CC6)C5)c4n3)cc2)CC1`, in experiment [1], the half-inhibitory concentration (IC50) (as a rule, the concentration needed to halve the response being measured) is more than 3300 nM.
In the case of `CN(C)C1CCN(c2ccc(Nc3ncc(Cl)c(N[C@H]4CCN(S(=O)(=O)C5CC5)C4)n3)cc2)CC1`, the half-maximal inhibitory concentration (IC50) in experiment [1] is more than 3300 nM.
For the compound `CN1CCN(c2ccc(Nc3ncc(Br)c(N[C@@H]4CCCN(S(=O)(=O)C5CC5)C4)n3)cc2)CC1`, the IC50 in the experiment on NCI-H1975 was more than 3300 nM; in the experiment with HCC827 it was more than 3300 nM; in [1], 200 nM; in experiment [9], 210 nM; with A-431, 620 nM. Besides, the Activity in experiment [2] was 0%; in the experiment with KC-0116 [3], “Dose-Dependent Effect”; in experiment [4], 4.61%; in experiment [7], 0.01%; with KC-0116 [11] it was “Dose-Dependent Effect”; in experiment [13], 14.6%. Besides, the Activity in [14] was found to be 11.51%; in experiment [15], 5.19%. In addition, the outcome in the experiment with KC-0116 [5] was Active. The viability at 0.1 µM in [6] came to 83.9%. Moreover, in experiment [8], the viability at 0.3 µM is 80.2%. For the same compound, the inhibition entry in the experiment with KC-0116 [10] and in the experiment on KC-0116 [12] was “Dose-Dependent Effect” in each case.
For the compound `CN1CCN(c2ccc(Nc3ncc(Br)c(N[C@H]4CC[C@H](O)CC4)n3)cc2)CC1`, the IC50 in the experiment with NCI-H1975 was 580 nM; in the experiment with HCC827, 650 nM; in experiment [1], 240 nM; in [9], 250 nM; in the experiment on A-431, more than 3300 nM.
Consider `CN1CCN(c2ccc(Nc3ncc4c5ccccc5n(-c5cccc(NCCO)c5)c4n3)cc2)CC1`, for which, in experiment [1], the IC50 was more than 3300 nM.
Still for that read-out and setting: under `CN1CCN(c2ccc(Nc3ncc(Br)c(NC4CCOCC4)n3)cc2)CC1` stands 710 nM.
Same read-out and setting: the value for `CN1CCN(c2ccc(Nc3ncc(Br)c(NCc4ccccn4)n3)cc2)CC1` was 1310 nM; that for `CN1CCN(c2ccc(Nc3ncc(Br)c(N[C@H]4CCCN(S(=O)(=O)C5CC5)C4)n3)cc2)CC1` was 2000 nM; that for `CN1CCN(c2ccc(Nc3ncc4c5ccccc5n(-c5ccc(NC(=O)CN)cc5)c4n3)cc2)CC1` was more than 3300 nM.
As to `CN1CCN(c2ccc(Nc3ncc(Br)c(N[C@H]4CCN(S(=O)(=O)C5CC5)C4)n3)cc2)CC1`, half-maximal inhibition in experiment [1] (IC50) required 1130 nM.
Take `COc1cc(N2CCC(N3CCN(C)CC3)CC2)ccc1Nc1ncc(Cl)c(Nc2ccccc2P(C)(C)=O)n1` [BRIGATINIB]: the concentration for half-maximal inhibition (IC50) stood at 830 nM in the experiment with NCI-H1975; 13 nM in the experiment on HCC827; 360 nM in experiment [1]; 440 nM in experiment [9]; 5.57 nM in experiment [16]; 500 nM in the experiment with A-431. Also, the Activity in experiment [2] was found to be 0.02%; in [13], 7.2%; in experiment [15] it was 1.94%. The viability at 0.3 µM in experiment [8] amounted to 90.8%.
For `C=CC(=O)Nc1cc(Nc2nccc(-c3cn(C)c4ccccc34)n2)c(OC)cc1N(C)CCN(C)C` [OSIMERTINIB], the concentration for half-maximal inhibition (IC50) worked out at […] with NCI-H1975, 1 nM in the experiment with HCC827, 1430 nM in [1] and 1530 nM in experiment [9].
With `CN1CCN(c2ccc(Nc3ncc(-c4ccccc4)c(Nc4cccc(NC(=O)CN)c4)n3)cc2)CC1`, the half-maximal inhibitory concentration (IC50) in [1] is more than 3300 nM.
The same measure, in the same setting: the value for `CN1CCN(c2ccc(Nc3ncc(Br)c(NC4CCN(S(C)(=O)=O)CC4)n3)cc2)CC1` was 940 nM; that for `CN(C)C1CCN(c2ccc(Nc3ncc(Cl)c(N[C@@H]4CCN(S(=O)(=O)C5CC5)C4)n3)cc2)CC1` was 460 nM.
On the same count and under the same terms, the value for `CN(C)C1CCN(c2ccc(Nc3ncc(Cl)c(NC4CCN(C(=O)CO)CC4)n3)cc2)CC1` was 2460 nM; that for `CN1CCN(c2ccc(Nc3ncc4c5ccccc5n(-c5cccc(NS(C)(=O)=O)c5)c4n3)cc2)CC1` was more than 3300 nM.
In experiment [1], `CC(=O)N1CCC(Nc2nc(Nc3ccc(N4CCN(C)CC4)cc3)ncc2Br)CC1` registered an IC50 of 950 nM.
Turning to `CN(C)C1CCN(c2ccc(Nc3ncc(Cl)c(N[C@H]4CCN(C(=O)CO)C4)n3)cc2)CC1`, the IC50 in [1] was more than 3300 nM.
`CN1CCN(c2ccc(Nc3ncc(-c4ccccc4)c(N[C@H]4CCN(S(=O)(=O)C5CC5)C4)n3)cc2)CC1` yielded an IC50 in [1] of more than 3300 nM.
On the same count and under the same terms, under `CN1CCN(c2ccc(Nc3ncc(Cl)c(N[C@H]4CC[C@H](O)CC4)n3)cc2)CC1` stands 310 nM.
Still for that read-out and setting: the value for `CN(C)C1CCN(c2ccc(Nc3ncc(Br)c(N[C@H]4CC[C@H](O)CC4)n3)cc2)CC1` was 480 nM; that for `CN1CCN(c2ccc(Nc3ncc(Br)c(N[C@@H]4CCN(S(=O)(=O)C5CC5)C4)n3)cc2)CC1` was 3010 nM; that for `CN1CCN(c2ccc(Nc3ncc4c5ccccc5n(-c5cccc(NC(=O)CO)c5)c4n3)cc2)CC1` was more than 3300 nM.
Same read-out and setting: under `CN(C)C1CCN(c2ccc(Nc3ncc(Cl)c(N[C@@H]4CCCN(C(=O)CO)C4)n3)cc2)CC1` stands more than 3300 nM; under `CN1CCN(c2ccc(Nc3ncc4c5ccc(OC(F)(F)F)cc5n(-c5cccc(NC(=O)CN)c5)c4n3)cc2)CC1`, more than 3300 nM.
With `CN1CCN(c2ccc(Nc3ncc(Br)c(Nc4cccc(NC(=O)CN)c4)n3)cc2)CC1`, in [1], half-maximal inhibition (IC50) required 440 nM.
`CN1CCN(c2ccc(Nc3ncc(C(F)(F)F)c(N[C@H]4CC[C@H](O)CC4)n3)cc2)CC1` registered a half-maximal inhibitory concentration (IC50) in [1] of more than 3300 nM.
`CN1CCN(c2ccc(Nc3ncc(Br)c(NC4CCN(S(=O)(=O)C5CC5)CC4)n3)cc2)CC1` yielded a half-inhibitory concentration (IC50) in experiment [1] of 1100 nM.
In experiment [1], `CN(C)C1CCN(c2ccc(Nc3ncc(Cl)c(N[C@H]4CCCN(C(=O)CO)C4)n3)cc2)CC1` showed a half-maximal inhibitory concentration (IC50) of 1660 nM.
Turning to `COc1cc(N2CCC(N3CCN(C)CC3)CC2)c(C)cc1Nc1ncc(Br)c(Nc2ccc3nccnc3c2P(C)(C)=O)n1`, the half-inhibitory concentration (IC50) in [17] amounted to 0.16 nM; in experiment [16] it was 0.21 nM.
